Data as given in PubChem BioAssay (NCI).
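Abbreviation: GI50, concentration required for 50% inhibition of growth. At the TGI there is no net growth.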

How the values were obtained:
Test in all cases: inhibition of tumour cell growth, NCI panel, 384-well format
OVCAR-8 ovarian = system: OVCAR-8 ovarian
A498 renal = system: A498 renal
SW-620 colon = system: SW-620 colon
MDA-MB-468 breast = system: MDA-MB-468 breast
LOX IMVI melanoma = system: LOX IMVI melanoma
COLO 205 colon = system: COLO 205 colon
HCT-116 colon = system: HCT-116 colon
EKVX NSCLC = system: EKVX NSCLC
MALME-3M melanoma = system: MALME-3M melanoma
A549 NSCLC = system: A549 NSCLC
NCI/ADR-RES ovarian = system: NCI/ADR-RES ovarian
SR leukemia = system: SR leukemia
SF-295 CNS = system: SF-295 CNS
PC-3 prostate = system: PC-3 prostate
ACHN renal = system: ACHN renal
M14 melanoma = system: M14 melanoma
MDA-MB-231 breast = system: MDA-MB-231 breast
HS 578T breast = system: HS 578T breast
SF-268 CNS = system: SF-268 CNS
RPMI-8226 leukemia = system: RPMI-8226 leukemia
DU-145 prostate = system: DU-145 prostate
KM12 colon = system: KM12 colon
UO-31 renal = system: UO-31 renal
HT29 colon = system: HT29 colon
OVCAR-5 ovarian = system: OVCAR-5 ovarian
SK-MEL-28 melanoma = system: SK-MEL-28 melanoma
T-47D breast = system: T-47D breast
MCF7 breast = system: MCF7 breast
OVCAR-4 ovarian = system: OVCAR-4 ovarian
786-0 renal = system: 786-0 renal
IGROV1 ovarian = system: IGROV1 ovarian
TK-10 renal = system: TK-10 renal
NCI-H226 lung = system: NCI-H226 lung
CCRF-CEM leukemia = system: CCRF-CEM leukemia
SN12C renal = system: SN12C renal
BT-549 breast = system: BT-549 breast
SNB-19 CNS = system: SNB-19 CNS
NCI-H23 lung = system: NCI-H23 lung
NCI-H322M lung = system: NCI-H322M lung
UACC-257 melanoma = system: UACC-257 melanoma
SNB-75 CNS = system: SNB-75 CNS
SF-539 CNS = system: SF-539 CNS
U251 glioblastoma = system: U251 glioblastoma
SK-OV-3 ovarian = system: SK-OV-3 ovarian
HOP-62 NSCLC = system: HOP-62 NSCLC
MOLT-4 leukemia = system: MOLT-4 leukemia
NCI-H522 lung = system: NCI-H522 lung

CC[C@H](NC(=O)[C@H](CS(=O)(=O)CC1CC1)N[C@@H](c1ccc(F)cc1)C(F)(F)F)C(=O)C(=O)NC1CC1
GI50 (OVCAR-8 ovarian): > 100 µM | TGI (OVCAR-8 ovarian): > 100 µM | GI50 (A498 renal): > 100 µM | TGI (A498 renal): > 100 µM | GI50 (SW-620 colon): > 100 µM | TGI (SW-620 colon): > 100 µM | GI50 (MDA-MB-468 breast): 22.8 µM | TGI (MDA-MB-468 breast): 67.5 µM | GI50 (LOX IMVI melanoma): > 100 µM | TGI (LOX IMVI melanoma): > 100 µM | GI50 (COLO 205 colon): > 100 µM | TGI (COLO 205 colon): > 100 µM | GI50 (HCT-116 colon): > 100 µM | TGI (HCT-116 colon): > 100 µM | GI50 (EKVX NSCLC): 98.7 µM | TGI (EKVX NSCLC): > 100 µM | GI50 (MALME-3M melanoma): > 100 µM | TGI (MALME-3M melanoma): > 100 µM | GI50 (A549 NSCLC): > 100 µM | TGI (A549 NSCLC): > 100 µM | GI50 (NCI/ADR-RES ovarian): > 100 µM | TGI (NCI/ADR-RES ovarian): > 100 µM | GI50 (SR leukemia): 19.3 µM | TGI (SR leukemia): 74.5 µM | GI50 (SF-295 CNS): > 100 µM | TGI (SF-295 CNS): > 100 µM | GI50 (PC-3 prostate): > 100 µM | TGI (PC-3 prostate): > 100 µM | GI50 (ACHN renal): > 100 µM | TGI (ACHN renal): > 100 µM | GI50 (M14 melanoma): > 100 µM | TGI (M14 melanoma): > 100 µM | GI50 (MDA-MB-231 breast): > 100 µM | TGI (MDA-MB-231 breast): > 100 µM | GI50 (HS 578T breast): > 100 µM | TGI (HS 578T breast): > 100 µM | GI50 (SF-268 CNS): > 51.4 µM | TGI (SF-268 CNS): > 93.9 µM | GI50 (RPMI-8226 leukemia): 77.2 µM | TGI (RPMI-8226 leukemia): > 100 µM | GI50 (DU-145 prostate): > 100 µM | TGI (DU-145 prostate): > 100 µM | GI50 (KM12 colon): > 100 µM | TGI (KM12 colon): > 100 µM | GI50 (UO-31 renal): > 100 µM | TGI (UO-31 renal): > 100 µM | GI50 (HT29 colon): > 100 µM | TGI (HT29 colon): > 100 µM | GI50 (OVCAR-5 ovarian): > 100 µM | TGI (OVCAR-5 ovarian): > 100 µM | GI50 (SK-MEL-28 melanoma): > 100 µM | TGI (SK-MEL-28 melanoma): > 100 µM | GI50 (T-47D breast): > 59.9 µM | TGI (T-47D breast): > 100 µM | GI50 (MCF7 breast): 97.5 µM | TGI (MCF7 breast): > 100 µM | GI50 (OVCAR-4 ovarian): > 100 µM | TGI (OVCAR-4 ovarian): > 100 µM | GI50 (786-0 renal): > 100 µM | TGI (786-0 renal): > 100 µM | GI50 (IGROV1 ovarian): > 100 µM | TGI (IGROV1 ovarian): > 100 µM | GI50 (TK-10 renal): > 100 µM | TGI (TK-10 renal): > 100 µM | GI50 (NCI-H226 lung): > 71.7 µM | TGI (NCI-H226 lung): > 100 µM | GI50 (CCRF-CEM leukemia): 60.9 µM | TGI (CCRF-CEM leukemia): > 100 µM | GI50 (SN12C renal): > 100 µM | TGI (SN12C renal): > 100 µM | GI50 (BT-549 breast): > 100 µM | TGI (BT-549 breast): > 100 µM | GI50 (SNB-19 CNS): > 100 µM | TGI (SNB-19 CNS): > 100 µM | GI50 (NCI-H23 lung): > 100 µM | TGI (NCI-H23 lung): > 100 µM | GI50 (NCI-H322M lung): > 100 µM | TGI (NCI-H322M lung): > 100 µM | GI50 (UACC-257 melanoma): > 100 µM | TGI (UACC-257 melanoma): > 100 µM | GI50 (SNB-75 CNS): > 89.5 µM | TGI (SNB-75 CNS): > 100 µM | GI50 (SF-539 CNS): > 100 µM | TGI (SF-539 CNS): > 100 µM | GI50 (U251 glioblastoma): > 100 µM | TGI (U251 glioblastoma): > 100 µM | GI50 (SK-OV-3 ovarian): > 100 µM | TGI (SK-OV-3 ovarian): > 100 µM | GI50 (HOP-62 NSCLC): 98.8 µM | TGI (HOP-62 NSCLC): > 100 µM | GI50 (MOLT-4 leukemia): 29.5 µM | TGI (MOLT-4 leukemia): > 100 µM | GI50 (NCI-H522 lung): > 100 µM | TGI (NCI-H522 lung): > 100 µM
